We go through six compounds from US20110183848A1, “Piperazine Compounds With Herbicidal Effect” (BASF SE, priority 2008, published 2011).

One experiment concerns SETIT. Put plainly: greenhouse test, post-emergence treatment. Type of experiment: in vivo, Setaria italica. As to conditions: application rate 1.0 kg/ha, scale 0 to 100. The source says:
(§1) The culture containers used were plastic flowerpots containing loamy sand with approximately 5.8% of humus as the substrate. The seeds of the test plants were sown separately for each species.
(§2) For the post-emergence treatment, the test plants were first grown to a height of 3 to 15 cm, depending on the plant habit, and then treated with the active compounds which had been suspended or emulsified in water. For this purpose, the test plants were either sown directly and grown in the same containers, or they were first grown separately as seedlings and transplanted into the test containers a few days prior to treatment.
(§3) Depending on the species, the plants were kept at 10-25° C. or 20-35° C. The test period extended over 2 to 4 weeks. During this time, the plants were tended, and their response to the individual treatments was evaluated.
(§4) Evaluation was carried out using a scale from 0 to 100. 100 means no emergence of the plants, or complete destruction of at least the aerial moieties, and 0 means no damage, or normal course of growth. A good herbicidal activity is given at values of at least 70 and a very good herbicidal activity is given at values of at least 85.
(§5) The plants used in the greenhouse experiments belonged to the following species: […]

For the next experiment, the system named is ECHCG. Put plainly: greenhouse test, post-emergence treatment. As to conditions: application rate 1.0 kg/ha, scale 0 to 100. It is filed as in vivo, Echinochloa crus-galli.
Description: as §1, §2, §3, §4, §5

The test system of another experiment is CHEAL. Put plainly: greenhouse test, post-emergence treatment. Type of experiment: in vivo, Chenopodium album. Particulars: application rate 0.5 kg/ha, scale 0 to 100.
Description: as §1, §2, §3, §4, §5

Experiment [1] has as its system SETFA. Put plainly: greenhouse test, post-emergence treatment. Particulars: application rate 1.0 kg/ha, scale 0 to 100. Type of experiment: in vivo, Setaria faberi.
Description: as §1, §2, §3, §4, §5

The subject of experiment [2] is SETFA. Put plainly: active compound combinations, pre-emergence greenhouse test (Colby synergy). Type of experiment: in vivo, Setaria faberi.
Description: as §1
(§6) For the pre-emergence treatment, the active compounds, which had been suspended or emulsified in water, were applied directly after sowing by means of finely distributing nozzles. The containers were irrigated gently to promote germination and growth and subsequently covered with transparent plastic hoods until the plants had rooted. This cover caused uniform germination of the test plants, unless this has been impaired by the active compounds.
(§7) The respective stated components A and B were formulated as a 5% by weight strength or 10% by weight strength emulsion concentrate, or a commercial formulation of component B was used, and, with addition of the amount of solvent system, introduced into the spray liquor used for applying the active compound. In the examples, the solvent used was water.
(§8) The test period extended over 20 or 21 days. During this time, the plants were tended, and their reactions to the treatments with the active compounds were monitored.
(§9) In the examples below, using the method of S. R. Colby (1967) “Calculating synergistic and antagonistic responses of herbicide combinations”, Weeds 15, p. 22ff., the value E, which is expected when the activity of the individual active compounds is only additive, was calculated.
(§10) If the value determined experimentally is higher than the value E calculated according to Colby, a synergistic effect is present.
(§11) Here, a.s.=active substance, based on 100% active compound. In the use examples 15 and 16, the values E calculated according to Colby are stated in brackets) ( ).
(§12) What was evaluated was the damage by the chemical compositions using a scale of from 0 to 100%, in comparison to the untreated control plants. 0 means no damage, and 100 means complete destruction of the plants.

The test system of a further experiment is ALOMY. The experiment is described as above. Type of experiment: in vivo, Alopecurus myosuroides.
Description: as §1, §6, §7, §8, §9, §10, §11, §12

The subject of the next experiment is LOLMU. The description is as above. Type of experiment: in vivo, Lolium multiflorum.
Description: as §1, §6, §7, §8, §9, §10, §11, §12

[3] abbreviates: use example 14, application rate a.s. 31.25 g/ha.
Setting [4] is: use example 14, application rate a.s. 125 g/ha.
[5] abbreviates: use example 14, application rate a.s. 250 g/ha.
Setting [6] is: use example 14, application rate a.s. 62.5 g/ha.
Setting [7] is: use example 14, application rate a.s. 3.12 g/ha.
The mark [8] stands for this setting: use example 14, application rate a.s. 25 g/ha.
[9] abbreviates: use example 14, application rate a.s. 12.5 g/ha.

As to `C=CCCN1C(=O)C(=Cc2ccccc2C#N)N(C)C(=O)C1(C)Cc1ccccc1` (stereo not drawn) [I-19], in the experiment on SETIT, the “herbicidal activity against SETIT” value is recorded as “very good (a very good herbicidal activity is given at values of at least 85)”. The “herbicidal activity against ECHCG” value in the experiment on ECHCG is “very good (a very good herbicidal activity is given at values of at least 85)”.

`CCCCCN1C(=O)C(=Cc2ccccc2C#N)N(C)C(=O)C1(C)Cc1ccccc1` (stereo not drawn) [I-21]: the “herbicidal activity against CHEAL” value in the experiment on CHEAL is given as “very good (a very good herbicidal activity is given at values of at least 85)”.

With `CN1C(=O)C(C)(Cc2ccccc2)N(CC2CC2)C(=O)C1=Cc1ccccc1C#N` (stereo not drawn) [I-25], the “herbicidal activity against SETFA” value in the experiment on SETFA [1] is “very good (a very good herbicidal activity is given at values of at least 85)”.

`CCOc1ncccc1CC1C(=O)N(COC)C(C)(Cc2ccccc2)C(=O)N1C` (stereo not drawn) [II-26]: the “Herbicidal activity in % after 20 days against SETFA” value came out at 10% in the experiment with SETFA [2] (setting [3]), 75% with SETFA [2] (setting [4]) and 100% in the experiment with SETFA [2] (setting [5]). Also, the “Herbicidal activity in % after 20 days against ALOMY” value in the experiment with ALOMY (setting [3]) is reported as 30%; in the experiment with ALOMY (setting [6]), 60%; in the experiment with ALOMY (setting [4]), 90%; with ALOMY (setting [5]) it was 95%. Also, the “Herbicidal activity in % after 20 days against LOLMU” value in the experiment with LOLMU (setting [3]) is on record as 0%; with LOLMU (setting [6]), 15%; with LOLMU (setting [4]) it was 98%.

`CCNc1nc(Cl)nc(NC(C)C)n1` [atrazine]: the entries for the “Herbicidal activity in % after 20 days against ALOMY” value in the experiment on ALOMY (application rate a.s. 125 g/ha) and in the experiment with ALOMY (application rate a.s. 250 g/ha) were 35% and 65%, respectively. Further, the “Herbicidal activity in % after 20 days against LOLMU” value is on record as 0% with LOLMU (application rate a.s. 125 g/ha) and 20% in the experiment on LOLMU (application rate a.s. 250 g/ha).

With `Cn1nc(C(F)(F)F)c(CS(=O)(=O)C2=NOC(C)(C)C2)c1OC(F)F` [pyroxasulfone], the “Herbicidal activity in % after 20 days against SETFA” value with SETFA [2] (setting [7]) is on record as 0%; in the experiment with SETFA [2] (use example 14, application rate a.s. 6.25 g/ha), 25%; in the experiment with SETFA [2] (setting [8]) it was 95%. In addition, the “Herbicidal activity in % after 20 days against ALOMY” value is given as 25% in the experiment on ALOMY (setting [7]), 95% in the experiment with ALOMY (setting [9]) and 95% in the experiment on ALOMY (setting [8]). Moreover, the “Herbicidal activity in % after 20 days against LOLMU” value came to 15% in the experiment on LOLMU (setting [7]), 75% with LOLMU (setting [9]) and 80% in the experiment with LOLMU (setting [8]).
